ChEMBL document CHEMBL5528047, “A Potent SOS1 PROTAC Degrader with Synergistic Efficacy in Combination with KRASG12C Inhibitor” (J Med Chem, 2024)

Experiments:
Assay type in all cases: cell-based
[1] = target: T1, von Hippel-Lindau disease tumor suppressor/Son of sevenless homolog 1 (Homo sapiens, UniProt Q07889+P40337); assay: Protac activity at VHL/SOS1 in human PANC-1 cells assessed as SOS1 degradation at 10 uM by Western blotting analysis relative to control
[2] = target: T1, von Hippel-Lindau disease tumor suppressor/Son of sevenless homolog 1; assay: Protac activity at VHL/SOS1 in human PANC-1 cells assessed as SOS1 degradation at 1 uM by Western blotting analysis relative to control
[3] = target: T1, von Hippel-Lindau disease tumor suppressor/Son of sevenless homolog 1; assay: Protac activity at VHL/SOS1 in human K562 cells assessed as SOS1 degradation at 1 uM by Western blotting analysis relative to control
[4] = target: T2, Protein cereblon/Son of sevenless homolog 1 (Homo sapiens) (UniProt Q07889+Q96SW2); assay: Protac activity at CRBN/SOS1 in human PANC-1 cells assessed as SOS1 degradation at 1 uM by Western blotting analysis
T2 sequence (Q07889 whole entry, looked up): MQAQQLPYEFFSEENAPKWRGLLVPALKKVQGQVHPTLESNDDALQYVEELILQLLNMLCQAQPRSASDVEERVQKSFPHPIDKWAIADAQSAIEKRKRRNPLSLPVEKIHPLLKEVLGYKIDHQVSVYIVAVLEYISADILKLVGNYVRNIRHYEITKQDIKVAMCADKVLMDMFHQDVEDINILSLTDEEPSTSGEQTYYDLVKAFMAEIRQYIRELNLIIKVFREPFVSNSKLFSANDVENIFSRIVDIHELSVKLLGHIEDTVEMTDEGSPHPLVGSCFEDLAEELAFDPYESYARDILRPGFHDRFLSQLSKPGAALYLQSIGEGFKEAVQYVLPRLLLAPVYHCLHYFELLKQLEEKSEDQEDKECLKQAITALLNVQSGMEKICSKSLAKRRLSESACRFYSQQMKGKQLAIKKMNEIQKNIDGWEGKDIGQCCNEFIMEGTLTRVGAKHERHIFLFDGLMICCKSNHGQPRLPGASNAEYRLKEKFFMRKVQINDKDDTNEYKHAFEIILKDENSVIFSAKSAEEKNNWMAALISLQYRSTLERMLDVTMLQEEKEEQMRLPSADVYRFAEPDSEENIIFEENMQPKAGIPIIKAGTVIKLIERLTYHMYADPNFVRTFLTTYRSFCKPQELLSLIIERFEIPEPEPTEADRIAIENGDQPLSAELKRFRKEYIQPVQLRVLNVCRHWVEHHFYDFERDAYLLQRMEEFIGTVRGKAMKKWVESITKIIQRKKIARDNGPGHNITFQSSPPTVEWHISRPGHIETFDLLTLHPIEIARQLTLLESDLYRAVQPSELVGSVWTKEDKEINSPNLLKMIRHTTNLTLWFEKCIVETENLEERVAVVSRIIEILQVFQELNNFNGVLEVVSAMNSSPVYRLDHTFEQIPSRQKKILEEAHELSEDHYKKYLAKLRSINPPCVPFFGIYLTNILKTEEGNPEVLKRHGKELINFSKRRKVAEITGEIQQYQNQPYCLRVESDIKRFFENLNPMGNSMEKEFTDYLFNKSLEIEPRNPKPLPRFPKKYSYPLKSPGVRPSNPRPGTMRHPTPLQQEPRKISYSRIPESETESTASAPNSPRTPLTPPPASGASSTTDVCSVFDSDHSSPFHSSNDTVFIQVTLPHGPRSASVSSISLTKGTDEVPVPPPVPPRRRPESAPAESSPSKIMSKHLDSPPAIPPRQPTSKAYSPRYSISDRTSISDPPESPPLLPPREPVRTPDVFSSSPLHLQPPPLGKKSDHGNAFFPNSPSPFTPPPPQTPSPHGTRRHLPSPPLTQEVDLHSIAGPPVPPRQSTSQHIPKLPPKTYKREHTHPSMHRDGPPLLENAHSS
T2 sequence (Q96SW2 whole entry, looked up): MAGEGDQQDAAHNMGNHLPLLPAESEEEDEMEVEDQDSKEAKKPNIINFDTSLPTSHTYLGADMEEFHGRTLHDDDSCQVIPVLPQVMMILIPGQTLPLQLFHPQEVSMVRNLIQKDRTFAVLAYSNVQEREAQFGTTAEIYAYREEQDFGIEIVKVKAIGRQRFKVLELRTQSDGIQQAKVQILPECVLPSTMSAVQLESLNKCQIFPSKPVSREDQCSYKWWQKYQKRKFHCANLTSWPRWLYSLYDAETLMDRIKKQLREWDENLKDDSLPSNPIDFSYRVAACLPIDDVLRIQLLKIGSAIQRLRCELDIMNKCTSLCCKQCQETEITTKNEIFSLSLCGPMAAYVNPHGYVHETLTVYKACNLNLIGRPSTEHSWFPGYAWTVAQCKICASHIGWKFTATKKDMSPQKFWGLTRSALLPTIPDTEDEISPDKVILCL

[5] = target: T2, Protein cereblon/Son of sevenless homolog 1 (Homo sapiens); assay: Protac activity at CRBN/SOS1 in human K562 cells assessed as SOS1 degradation at 10 uM by Western blotting analysis relative to control
[6] = target: T2, Protein cereblon/Son of sevenless homolog 1 (Homo sapiens); assay: Protac activity at CRBN/SOS1 in human K562 cells assessed as SOS1 degradation at 1 uM by Western blotting analysis relative to control
[7] = target: T2, Protein cereblon/Son of sevenless homolog 1 (Homo sapiens); assay: Protac activity at CRBN/SOS1 in human PANC-1 cells assessed as SOS1 degradation at 10 uM by Western blotting analysis relative to control
[8] = target: T1, von Hippel-Lindau disease tumor suppressor/Son of sevenless homolog 1; assay: Protac activity at VHL/SOS1 in human K562 cells assessed as SOS1 degradation at 10 uM by Western blotting analysis relative to control

T1 sequence (P40337 whole entry, looked up): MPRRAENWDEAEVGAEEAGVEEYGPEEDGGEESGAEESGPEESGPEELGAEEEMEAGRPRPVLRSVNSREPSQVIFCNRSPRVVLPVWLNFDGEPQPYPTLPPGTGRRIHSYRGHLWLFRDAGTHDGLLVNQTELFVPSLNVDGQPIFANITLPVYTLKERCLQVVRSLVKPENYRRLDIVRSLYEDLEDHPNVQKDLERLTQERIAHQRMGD
T1 sequence (Q07889 whole entry, looked up): as the sequence (Q07889 whole entry, looked up) above

Activity [1] | Activity [2] | Activity [3] | Activity [4] | Activity [5] | Activity [6] | Activity [7] | Activity [8] | Structure (SMILES)
14.3% | 0% | 27% |  |  |  |  |  | CNCc1ccccc1-c1csc([C@@H](C)Nc2nc(C)nc3cc(OC)c(OCCCCCCCC(=O)N[C@H](C(=O)N4C[C@H](O)C[C@H]4C(=O)NCc4ccc(-c5scnc5C)cc4)C(C)(C)C)cc23)c1
 |  |  | 1.3% | 46.7% | 35.6% | 0% |  | COc1cc2nc(C)nc(N[C@H](C)c3cc(-c4ccccc4CNCCCCCCCCNc4ccc5c(c4)C(=O)N(C4CCC(=O)NC4=O)C5=O)cs3)c2cc1OC (some centres undefined)
0% | 0% | 0% |  |  |  |  | 0% | COc1cc2nc(C)nc(N[C@H](C)c3cc(N)cc(C(F)(F)F)c3)c2cc1OCCCCCC(=O)N[C@H](C(=O)N1C[C@H](O)C[C@H]1C(=O)NCc1ccc(-c2scnc2C)cc1)C(C)(C)C
12.7% | 0% | 27.4% |  |  |  |  | 58.9% | COc1cc2nc(C)nc(N[C@H](C)c3cc(-c4ccccc4CNCCCCCCCC(=O)N[C@H](C(=O)N4C[C@H](O)C[C@H]4C(=O)NCc4ccc(-c5scnc5C)cc4)C(C)(C)C)cs3)c2cc1OC
0% | 0% | 0% |  |  |  |  | 0% | COc1cc2nc(C)nc(N[C@H](C)c3cc(-c4ccccc4CNCCC4CCN(C(=O)CC(=O)N[C@H](C(=O)N5C[C@H](O)C[C@H]5C(=O)NCc5ccc(-c6scnc6C)cc5)C(C)(C)C)CC4)cs3)c2cc1OC
0% | 26% | 0% |  |  |  |  | 0% | COc1cc2nc(C)nc(N[C@H](C)c3cc(-c4ccccc4CNCC4CCN(C(=O)CC(=O)N[C@H](C(=O)N5C[C@H](O)C[C@H]5C(=O)NCc5ccc(-c6scnc6C)cc5)C(C)(C)C)CC4)cs3)c2cc1OC
0% | 0% | 34.7% |  |  |  |  |  | CNCc1ccccc1-c1csc([C@@H](C)Nc2nc(C)nc3cc(OC)c(OCCCCCCCCC(=O)N[C@H](C(=O)N4C[C@H](O)C[C@H]4C(=O)NCc4ccc(-c5scnc5C)cc4)C(C)(C)C)cc23)c1
5.8% | 0% | 0% |  |  |  |  | 25.3% | COc1cc2nc(C)nc(N[C@H](C)c3cc(-c4ccccc4CNCCCCCCCCCC(=O)N[C@H](C(=O)N4C[C@H](O)C[C@H]4C(=O)NCc4ccc(-c5scnc5C)cc4)C(C)(C)C)cs3)c2cc1OC
0% | 0% | 0% |  |  |  |  | 0% | COc1cc2nc(C)nc(N[C@H](C)c3cc(N)cc(C(F)(F)F)c3)c2cc1OCCCC(=O)N[C@H](C(=O)N1C[C@H](O)C[C@H]1C(=O)NCc1ccc(-c2scnc2C)cc1)C(C)(C)C
11% | 13.2% | 0% |  |  |  |  | 0% | COc1cc2nc(C)nc(N[C@H](C)c3cc(-c4ccccc4CNCCCCCC(=O)N[C@H](C(=O)N4C[C@H](O)C[C@H]4C(=O)NCc4ccc(-c5scnc5C)cc4)C(C)(C)C)cs3)c2cc1OC
 |  |  | 10.3% | 89.1% | 0% | 0% |  | COc1cc2nc(C)nc(C[C@H](C)c3cc(-c4ccccc4CNCCCCCCCCCNc4ccc5c(c4)C(=O)N(C4CCC(=O)NC4=O)C5=O)cs3)c2cc1OC (some centres undefined)
0% | 8.8% | 27.5% |  |  |  |  | 32.9% | CNCc1ccccc1-c1csc([C@@H](C)Nc2nc(C)nc3cc(OC)c(OCCCCC(=O)N[C@H](C(=O)N4C[C@H](O)C[C@H]4C(=O)NCc4ccc(-c5scnc5C)cc4)C(C)(C)C)cc23)c1
21.5% | 28.2% | 0% |  |  |  |  | 0% | COc1cc2nc(C)nc(N[C@H](C)c3cc(N)cc(C(F)(F)F)c3)c2cc1OCCCCCCCCC(=O)N[C@H](C(=O)N1C[C@H](O)C[C@H]1C(=O)NCc1ccc(-c2scnc2C)cc1)C(C)(C)C
0% | 48.3% | 0% |  |  |  |  | 0% | COc1cc2nc(C)nc(N[C@H](C)c3cc(N)cc(C(F)(F)F)c3)c2cc1OCCCCCCCCCC(=O)N[C@H](C(=O)N1C[C@H](O)C[C@H]1C(=O)NCc1ccc(-c2scnc2C)cc1)C(C)(C)C
0% | 8.4% | 2.3% |  |  |  |  | 18.7% | CNCc1ccccc1-c1csc([C@@H](C)Nc2nc(C)nc3cc(OC)c(C4=CCN(C(=O)CCCC(=O)N[C@H](C(=O)N5C[C@H](O)C[C@H]5C(=O)NCc5ccc(-c6scnc6C)cc5)C(C)(C)C)CC4)cc23)c1
0% | 28.8% | 0% |  |  |  |  | 0% | COc1cc2nc(C)nc(N[C@H](C)c3cc(N)cc(C(F)(F)F)c3)c2cc1OCCCCCCCC(=O)N[C@H](C(=O)N1C[C@H](O)C[C@H]1C(=O)NCc1ccc(-c2scnc2C)cc1)C(C)(C)C
0% | 5.6% | 18.9% |  |  |  |  | 6.7% | CNCc1ccccc1-c1csc([C@@H](C)Nc2nc(C)nc3cc(OC)c(C4=CCN(C(=O)CCC(=O)N[C@H](C(=O)N5C[C@H](O)C[C@H]5C(=O)NCc5ccc(-c6scnc6C)cc5)C(C)(C)C)CC4)cc23)c1
0% | 0% | 28.1% |  |  |  |  | 21.8% | CNCc1ccccc1-c1csc([C@@H](C)Nc2nc(C)nc3cc(OC)c(OCCCCCCC(=O)N[C@H](C(=O)N4C[C@H](O)C[C@H]4C(=O)NCc4ccc(-c5scnc5C)cc4)C(C)(C)C)cc23)c1
49.8% | 29.1% | 0% |  |  |  |  | 0% | COc1cc2nc(C)nc(N[C@H](C)c3cc(-c4ccccc4CNCCCN4CCC(C(=O)N[C@H](C(=O)N5C[C@H](O)C[C@H]5C(=O)NCc5ccc(-c6scnc6C)cc5)C(C)(C)C)CC4)cs3)c2cc1OC
19.6% | 23% | 0% |  |  |  |  | 0% | COc1cc2nc(C)nc(N[C@H](C)c3cc(-c4ccccc4CNCC4CCN(CC5CCN(C(=O)CC(=O)N[C@H](C(=O)N6C[C@H](O)C[C@H]6C(=O)NCc6ccc(-c7scnc7C)cc6)C(C)(C)C)CC5)CC4)cs3)c2cc1OC
0% | 0% | 22.5% |  |  |  |  | 0% | CNCc1ccccc1-c1csc([C@@H](C)Nc2nc(C)nc3cc(OC)c(OCCCCCC(=O)N[C@H](C(=O)N4C[C@H](O)C[C@H]4C(=O)NCc4ccc(-c5scnc5C)cc4)C(C)(C)C)cc23)c1
24.4% | 0% | 0% |  |  |  |  | 31.6% | COc1cc2nc(C)nc(N[C@H](C)c3cc(-c4ccccc4CNCCCCCCCCC(=O)N[C@H](C(=O)N4C[C@H](O)C[C@H]4C(=O)NCc4ccc(-c5scnc5C)cc4)C(C)(C)C)cs3)c2cc1OC
30.2% | 0% | 16.6% |  |  |  |  | 28.3% | CNCc1ccccc1-c1csc([C@@H](C)Nc2nc(C)nc3cc(OC)c(C4=CCN(C(=O)CCCCC(=O)N[C@H](C(=O)N5C[C@H](O)C[C@H]5C(=O)NCc5ccc(-c6scnc6C)cc5)C(C)(C)C)CC4)cc23)c1
3.4% | 27% | 0% |  |  |  |  | 0% | COc1cc2nc(C)nc(N[C@H](C)c3cc(N)cc(C(F)(F)F)c3)c2cc1OCCCCCCC(=O)N[C@H](C(=O)N1C[C@H](O)C[C@H]1C(=O)NCc1ccc(-c2scnc2C)cc1)C(C)(C)C
